Measured values published in publication PMC10420250, “Assessment of Purity, Stability, and Pharmacokinetics of NGP-1, a Novel Prodrug of GS441254 with Potential Anti-SARS-CoV-2 Activity, Using Liquid Chromatography” (Molecules, 2023).

Columns and labels:
several viruses = details: in vitro; cited from earlier work
[1] = Stability of NGP-1 in artificial digestive juices (HPLC-DAD); type: in vitro ADME
From the text: Esterification is the predominant reaction used for the generation of prodrugs, owing to the facile hydrolysis of esters by various and ubiquitous esterases present in the various matrices. However, the presence of esters, particularly cyclic lactones, may result in instability in acidic, basic, or esterase environments. In this study, HPLC-DAD was employed to assess the stability of NGP-1 in different artificial digestive juices. The test samples were collected at various time intervals subsequent to dissolving NGP-1 in artificial gastric juice (diluted HCl with pepsin, pH = 1.5) and artificial intestinal juice (PBS with trypsin, pH = 6.8).
Mobile phase A consisted of a phosphoric acid solution, while mobile phase B consisted of ACN. Gradient elution was employed to separate the components under the following conditions: 0–4 min, 30–50% B; 4–10 min, 50% B. The specific parameters for liquid chromatography are presented in Table 2. […] Then, the content of the objective analytes in each sample was calculated using the external standard method.

[2] = Pharmacokinetic study in rats via gavage administration, plasma GS441 by LC-MS/MS; type: in vivo, Sprague-Dawley rats; details: equimolar doses
Method: A pharmacokinetic study was carried out in vivo using Sprague-Dawley rats to assess the behavior of NGP-1 when administered orally through the gastrointestinal route. The rats were randomly categorized into two groups (n = 6) and subjected to a 12 h overnight fast prior to oral administration. […] After administration, 0.5 mL of orbital blood was collected at specific time intervals in an EP tube with heparin moisturizing.
All the blood samples were promptly centrifuged at 4 °C to separate the upper plasma. A volume of 50 µL of plasma was subsequently transferred to a tube pre-filled with 450 µL of protein precipitant (H2O:ACN:MeOH = 1:4:4 containing 20 ng/mL of QX). […] After thorough mixing, the samples underwent high-speed centrifugation. The supernatants were extracted and centrifugated again. The resulting supernatants were collected and transferred into a vial for subsequent analysis.
The AB SCIEX QTRAP®4500 instrument, which comprised an LC system (ExionLC^TM, SCIEX, Framingham, MA, USA) and a triple-quadrupole mass spectrometer with an ESI interface, was used for the experiment. […] The data were acquired and analyzed using Analyst 1.7.3 coupled with MultiQuant 3.0.3 (SCIEX).

| SMILES | EC50 comparison GS441 vs RDV (several viruses) | Degradation rate in artificial gastric juice ([1]; AGJ, diluted HCl with pepsin, pH = 1.5) | Stability in artificial intestinal juice ([1]; AIJ, PBS with trypsin, pH 6.8) | AUC0–∞ of converted GS441 relative to directly administered GS441 [2] | Frel / oral bioavailability of NGP-1 relative to GS441 [2] |
| --- | --- | --- | --- | --- | --- |
| N#C[C@@]1(c2ccc3c(N)ncnn23)O[C@H](CO)[C@@H](O)[C@H]1O [GS441] | higher EC50 than RDV |  |  |  |  |
| CC(C)C(=O)OC[C@H]1O[C@@](C#N)(c2ccc3c(N)ncnn23)[C@@H]2OC(=O)O[C@@H]21 [NGP-1] |  | accelerate significantly | relatively stable | approximately four | approximately four and four |
| CCC(CC)COC(=O)[C@H](C)N[P@](=O)(OC[C@H]1O[C@@](C#N)(c2ccc3c(N)ncnn23)[C@H](O)[C@@H]1O)Oc1ccccc1 [RDV, remdesivir] | more potent |  |  |  |  |
